# Reference: ChEMBL document CHEMBL4613209, “Quinolone hybrids and their anti-cancer activities: An overview” (Eur J Med Chem, 2019)
# Experiments:
# Format in all cases: functional, cell-based
# [1] = tested on: A549; assay: Antiproliferative activity against human A549 cells after 48 hrs by MTT assay; details: A549, 48 h
# [2] = tested on: PANC-1; assay: Antiproliferative activity against human PANC1 cells after 48 hrs by MTT assay; details: PANC-1, 48 h
# [3] = tested on: HeLa; assay: Antiproliferative activity against human HeLa cells after 48 hrs by MTT assay
# [4] = tested on: HCT-116; assay: Antiproliferative activity against human HCT116 cells after 48 hrs by MTT assay; details: HCT-116, 48 h
# [5] = tested on: Hep 3B2; assay: Anticancer activity against human Hep3B cells after 48 to 72 hrs by MTT assay
# [6] = tested on: K562; assay: Anticancer activity against human K562 cells after 48 to 72 hrs by MTT assay
# [7] = tested on: HCT-8; assay: Antiproliferative activity against human HCT8 cells after 48 hrs by MTT assay; details: HCT-8, 48 h
# [8] = tested on: HL-60; assay: Anticancer activity against human HL60 cells by MTT assay
# [9] = tested on: A549; assay: Anticancer activity against human A549 cells by MTT assay
# [10] = tested on: HepG2; assay: Anticancer activity against human HepG2 cells by MTT assay
# [11] = tested on: HT-29; assay: Anticancer activity against human HT-29 cells by MTT assay
# [12] = tested on: HeLa; assay: Anticancer activity against human HeLa cells by MTT assay
# [13] = tested on: PC-3; assay: Cytotoxicity against human PC3 cells assessed as reduction in cell viability after 48 hrs by SRB assay; details: PC-3, 48 h
# [14] = tested on: DU-145; assay: Cytotoxicity against human DU145 cells assessed as reduction in cell viability after 48 hrs by SRB assay; details: DU-145, 48 h
# [15] = tested on: HT-1080; assay: Cytotoxicity against human HT1080 cells assessed as reduction in cell viability
# [16] = tested on: K562; assay: Anticancer activity against human K562 cells
# [17] = tested on: HCT-116; assay: Cytotoxicity against human HCT116 cells assessed as reduction in cell viability by SRB assay
# [18] = tested on: MCF7; assay: Cytotoxicity against human MCF7 cells assessed as reduction in cell viability by SRB assay
# [19] = tested on: HCT-116; assay: Anticancer activity against human HCT116 cells after 48 to 72 hrs by MTT assay
# [20] = tested on: SMMC-7721; assay: Anticancer activity against human SMMC7721 cells after 48 to 72 hrs by MTT assay
# [21] = tested on: Jurkat; assay: Anticancer activity against human Jurkat cells after 48 to 72 hrs by MTT assay
IC50 [1],IC50 [2],IC50 [3],IC50 [4],Structure (SMILES),further results
> 10 µM,> 10 µM,> 10 µM,> 10 µM,O=C(NO)c1cn(C2CC2)c2cc(-n3cc(CN4CCOCC4)nn3)c(F)cc2c1=O,
> 10 µM,> 10 µM,> 10 µM,> 10 µM,CCCN(CCC)Cc1cn(-c2cc3c(cc2F)c(=O)c(C(=O)NO)cn3C2CC2)nn1,
,,,,O=c1c(/C(CCN2CCOCC2)=N/Nc2ccccc2)c(O)c2ccccc2n1-c1ccccc1,IC50 [5]: < 20 µg/mL; IC50 [6]: < 20 µg/mL
,,2.4 µM,2.2 µM,COc1ccc(C2CC(c3c(-c4ccccc4)c4ccccc4[nH]c3=O)=NN2c2ccccc2)cc1 (stereo not given),IC50 [7]: 5.6 µM
,,,,CCOC(=O)c1cn(Cc2cn(-c3ccc(Cl)cc3)nn2)c2ccc(F)cc2c1=O,IC50 [8]: 13.1 to 70.2 µM; IC50 [9]: 13.1 to 70.2 µM; IC50 [10]: 13.1 to 70.2 µM; IC50 [11]: 13.1 to 70.2 µM; IC50 [12]: 13.1 to 70.2 µM
> 10 µM,> 10 µM,> 10 µM,> 10 µM,O=C(NO)c1cn(C2CC2)c2cc(-n3cc(CN4CCCCC4)nn3)c(F)cc2c1=O,
,,,,Cn1c(=O)cc(Cc2nnc3n2N=C(c2cc4ccccc4oc2=O)CS3)c2ccccc21,IC50 [13]: 43.3 µg/mL; IC50 [14]: 20.4 µg/mL
,,,,Cc1cc2c(n1-c1ccccc1)CCc1cc(S(=O)(=O)c3ccccc3)c(O)nc1-2,IC50 [15]: 400 to 3600 nM
> 10 µM,> 10 µM,> 10 µM,> 10 µM,CCN(CC)Cc1cn(-c2cc3c(cc2F)c(=O)c(C(=O)NO)cn3C2CC2)nn1,
,,,,O=C(O)c1cn([C@@H]2O[C@H](CO)[C@@H](O)[C@H]2O)c2ccc(Oc3ccccc3)cc2c1=O,IC50 [16]: 64.1 to 198 µM
,,,,C/C(=N\Nc1ccccc1)c1c(O)c2ccccc2n(-c2ccccc2)c1=O,IC50 [5]: < 10 µg/mL; IC50 [6]: < 10 µg/mL
,,,,N#Cc1c(N)c2cc(-c3nc4ccccc4s3)ccc2[nH]c1=O,IC50 [17]: 61.6 nM; IC50 [18]: 74.8 nM
> 10 µM,> 10 µM,> 10 µM,> 10 µM,CN(C)Cc1cn(-c2cc3c(cc2F)c(=O)c(C(=O)NO)cn3C2CC2)nn1,
> 10 µM,> 10 µM,> 10 µM,> 10 µM,CC(C)NCc1cn(-c2cc3c(cc2F)c(=O)c(C(=O)NO)cn3C2CC2)nn1,
,,,,COc1cc(/C=N/n2c(SCc3ccccc3)nnc2-c2cn(C3CC3)c3cc(N4CCNCC4)c(F)cc3c2=O)cc(OC)c1OC,IC50 [19]: < 50 µM; IC50 [20]: < 50 µM; IC50 [21]: < 50 µM
